SMILES strings stand for the structures. Like-named read-outs stand apart in the source and are kept apart here.

Format in all cases: biochemical
For experiment [1], the target named is T1, cMet (Homo sapiens, UniProt P08581).
T1 construct: using the recombinant domains of cMet, cKit, ALK and PDGFRalpha kinases
The experiment in a line: cMet LanthaScreen TR-FRET kinase phosphorylation assay. As to conditions: recombinant kinase domain. How it is done:
(§1) The compounds are assayed in an antibody based kinase phosphorylation assay using the recombinant domains of cMet, cKit, ALK and PDGFRalpha kinases and a generic phospho-tyrosine peptide substrate. LanthaScreen™ is the detection of Time-Resolved Fluorescence Resonance Energy Transfer (TR-FRET) using lanthanide chelates to measure interactions between various binding partners. In a TR-FRET kinase assay, a long-lifetime lanthanide donor species is conjugated to an antibody that specifically binds to a phosphorylated product of a kinase reaction that is labeled with a suitable acceptor fluorophore. This antibody-mediated interaction brings the lanthanide donor and the acceptor into proximity such that resonance energy transfer can take place, resulting in a detectible increase in FRET. The LanthaScreen is run at ambient temperature and terminated by the addition of stop solution, followed by Tb-labeled P-20 antibody. After incubating in the dark, the plates are transferred to a fluorescence reader for counting. The effect of compound on the enzymatic activity is in all assays obtained from the linear progress curves and determined from one reading (end point measurement).
A general note: In TR-FRET formats the signal depends on donor and acceptor labels being close together.

The target in experiment [2] is T2, ALK (Homo sapiens, UniProt Q9UM73).
T2 construct: using the recombinant domains of cMet, cKit, ALK and PDGFRalpha kinases
The experiment in a line: ALK LanthaScreen TR-FRET kinase phosphorylation assay. The settings on record: recombinant kinase domain. How it is done:
as §1

Experiment [3] deals with T3, PDGFRalpha (Homo sapiens, UniProt P16234).
T3 construct: using the recombinant domains of cMet, cKit, ALK and PDGFRalpha kinases
The experiment in a line: PDGFRalpha LanthaScreen TR-FRET kinase phosphorylation assay. The settings on record: recombinant kinase domain, read-out: PDGFRa/IC50. The method, then:
as §1

For experiment [4], the target named is T4, GST-JAK2(808-1132) (Homo sapiens, UniProt O60674).
T4 construct: GST-JAK2(808-1132); purchased Invitrogen (Carlsbad, USA) #4288
The experiment in a line: JAK2 kinase assay (Caliper mobility shift, LabChip 3000). In a few lines:
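Recombinant GST-JAK2(808-1132) kinase domain with FITC-labelled JAK3tide peptide substrate and ATP; 60 min at 30 °C, EDTA stop. Substrate/product ratio read by microfluidic mobility shift; compounds at 8 final concentrations, 10 to 0.003 μM.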

Experiment [5] addresses T5, cKit (Homo sapiens, UniProt P10721).
T5 construct: using the recombinant domains of cMet, cKit, ALK and PDGFRalpha kinases
The experiment in a line: cKit LanthaScreen TR-FRET kinase phosphorylation assay. As to conditions: recombinant kinase domain. How it is done: as §1

T4 sequence (O60674 808-1132): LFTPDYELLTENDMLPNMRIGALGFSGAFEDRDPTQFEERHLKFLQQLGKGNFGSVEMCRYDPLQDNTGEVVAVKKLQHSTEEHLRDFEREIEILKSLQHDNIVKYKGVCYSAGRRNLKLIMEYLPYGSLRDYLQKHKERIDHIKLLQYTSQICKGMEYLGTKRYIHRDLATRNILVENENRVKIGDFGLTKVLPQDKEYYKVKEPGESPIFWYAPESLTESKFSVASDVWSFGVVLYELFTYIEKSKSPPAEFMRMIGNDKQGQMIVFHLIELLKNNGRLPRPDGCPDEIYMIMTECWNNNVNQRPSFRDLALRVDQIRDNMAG
T2 sequence (Q9UM73 1116-1392 limits assumed, species assumed): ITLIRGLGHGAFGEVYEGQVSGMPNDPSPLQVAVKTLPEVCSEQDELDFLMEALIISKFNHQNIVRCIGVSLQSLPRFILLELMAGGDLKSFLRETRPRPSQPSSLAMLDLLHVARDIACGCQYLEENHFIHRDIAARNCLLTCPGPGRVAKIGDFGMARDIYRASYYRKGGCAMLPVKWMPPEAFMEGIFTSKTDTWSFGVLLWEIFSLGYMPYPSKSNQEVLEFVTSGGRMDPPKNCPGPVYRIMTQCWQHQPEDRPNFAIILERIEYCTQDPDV
T3 sequence (P16234 593-954 limits assumed, species assumed): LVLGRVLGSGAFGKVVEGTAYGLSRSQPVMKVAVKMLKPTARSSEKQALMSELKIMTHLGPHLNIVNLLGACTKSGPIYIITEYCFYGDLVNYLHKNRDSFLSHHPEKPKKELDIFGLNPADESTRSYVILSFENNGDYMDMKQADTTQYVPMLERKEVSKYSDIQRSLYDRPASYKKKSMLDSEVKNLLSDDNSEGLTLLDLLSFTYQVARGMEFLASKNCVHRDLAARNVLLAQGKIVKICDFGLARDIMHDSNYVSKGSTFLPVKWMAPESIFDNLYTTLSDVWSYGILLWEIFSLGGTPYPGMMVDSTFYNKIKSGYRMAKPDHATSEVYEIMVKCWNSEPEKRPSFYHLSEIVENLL
T5 sequence (P10721 589-937 limits assumed): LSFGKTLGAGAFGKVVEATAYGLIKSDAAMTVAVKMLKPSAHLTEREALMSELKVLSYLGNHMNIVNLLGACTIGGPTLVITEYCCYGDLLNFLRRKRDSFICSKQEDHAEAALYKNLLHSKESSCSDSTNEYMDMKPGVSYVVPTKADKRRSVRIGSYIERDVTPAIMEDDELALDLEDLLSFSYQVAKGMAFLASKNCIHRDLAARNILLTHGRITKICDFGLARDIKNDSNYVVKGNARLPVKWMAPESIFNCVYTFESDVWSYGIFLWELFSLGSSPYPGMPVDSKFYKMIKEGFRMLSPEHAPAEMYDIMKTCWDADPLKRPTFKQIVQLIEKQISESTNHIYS
T1 sequence (P08581 1078-1345 limits assumed): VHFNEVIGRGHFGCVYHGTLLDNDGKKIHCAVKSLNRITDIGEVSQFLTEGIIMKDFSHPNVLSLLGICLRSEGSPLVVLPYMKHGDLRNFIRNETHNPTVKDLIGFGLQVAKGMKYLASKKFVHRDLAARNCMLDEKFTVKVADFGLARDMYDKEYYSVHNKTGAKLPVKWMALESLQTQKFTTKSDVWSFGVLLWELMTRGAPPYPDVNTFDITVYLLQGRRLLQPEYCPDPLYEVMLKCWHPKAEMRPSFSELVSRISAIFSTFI

As for `CC(C)Oc1ccc(Nc2ncc3ccn(-c4ccc(C#N)cc4)c3n2)cc1` [Example 96, 4-[2-(4-Isopropoxy-phenylamino)-pyrrolo[2,3-d]pyrimidin-7-yl]-benzonitrile], the IC50 in experiment [1] is more than 10 µM; in experiment [2], more than 10 µM; in experiment [3] it was more than 10 µM; in experiment [4], 0.0485 µM; in experiment [4] (Table 3), 0.0485 µM; in experiment [5] it was more than 10 µM.

In the case of `COc1cc(Nc2ncc3ccn(-c4ccc(C(=O)N5CCOCC5)c(F)c4)c3n2)ccc1F` [Example 151, {2-Fluoro-4-[2-(4-fluoro-3-methoxy-phenylamino)-pyrrolo[2,3-d]pyrimidin-7-yl]-phenyl}-morpholin-4-yl-methanone], the IC50 in experiment [1] was more than 10 µM; in experiment [2], more than 10 µM; in experiment [3], more than 10 µM; in experiment [4], 0.0057 µM; in experiment [4] (Table 3), 0.0057 µM; in experiment [5] it was more than 10 µM.

`COCc1ccc(Nc2ncc3ccn(-c4cc(F)c(CN5CCS(=O)(=O)CC5)c(F)c4)c3n2)cc1` [Example 184, {7-[4-(1,1-Dioxido-thiomorpholin-4-ylmethyl)-3,5-difluoro-phenyl]-7H-pyrrolo[2,3-d]pyrimidin-2-yl}-(4-methoxymethyl-phenyl)-amine]: the IC50 is more than 10 µM in experiment [1]; more than 10 µM in experiment [2]; more than 10 µM in experiment [3]; less than 0.003 µM in experiment [4]; less than 0.003 µM in experiment [4] (Table 3); more than 10 µM in experiment [5].

As to `CN1CCN(C(=O)c2cccc(Nc3ncc4ccn(-c5cc(F)c(CN6CCOCC6)c(F)c5)c4n3)c2)CC1` [Example 203, {3-[7-(3,5-Difluoro-4-morpholin-4-ylmethyl-phenyl)-7H-pyrrolo[2,3-d]pyrimidin-2-ylamino]-phenyl}-(4-methyl-piperazin-1-yl)-methanone], the IC50 is 6.9 µM in experiment [1]; more than 10 µM in experiment [2]; more than 10 µM in experiment [3]; 0.0074 µM in experiment [4]; 0.0064 µM in experiment [4] (Table 3); 4.7 µM in experiment [5].

Consider `Cc1ccc(Nc2ncc3ccn(-c4ccc(C(=O)N5CCOCC5)cc4)c3n2)cn1` [Example 238, {4-[2-(6-Methyl-pyridin-3-ylamino)-pyrrolo[2,3-d]pyrimidin-7-yl]-phenyl}-morpholin-4-yl-methanone], for which the IC50 in experiment [1] was 8.2 µM; in experiment [2] it was more than 10 µM; in experiment [3], 6.6 µM; in experiment [4] it was 0.0111 µM; in experiment [4] (Table 3) it was 0.0111 µM; in experiment [5], more than 10 µM.

For `Cc1ccc(Nc2ncc3ccn(-c4ccc(C(=O)N5CCN(CCO)CC5)cc4)c3n2)cc1C` [Example 300, {4-[2-(3,4-Dimethyl-phenylamino)-pyrrolo[2,3-d]pyrimidin-7-yl]-phenyl}-[4-(2-hydroxy-ethyl)-piperazin-1-yl]-methanone], the IC50 in experiment [1] is more than 10 µM; in experiment [2] it was more than 10 µM; in experiment [3], 7.7 µM; in experiment [4], 0.0175 µM; in experiment [4] (Table 3) it was 0.0175 µM; in experiment [5] it was 3.4 µM.

With `Cn1cc(Nc2ncc3ccn(-c4ccc(CC(=O)N5CCOCC5)cc4)c3n2)cn1` [Example 301, 2-{4-[2-(1-Methyl-1H-pyrazol-4-ylamino)-pyrrolo[2,3-d]pyrimidin-7-yl]-phenyl}-1-morpholin-4-yl-ethanone], the IC50 in experiment [1] was 3.6 µM; in experiment [2], more than 10 µM; in experiment [3], 5.6 µM; in experiment [4], less than 0.003 µM; in experiment [4] (Table 3), less than 0.003 µM; in experiment [5] it was 4.75 µM.

Regarding `Cc1cc(Nc2ncc3ccn(-c4ccc(C(=O)N5CCOCC5)c(F)c4)c3n2)nn1C` [Example 311, {4-[2-(1,5-Dimethyl-1H-pyrazol-3-ylamino)-pyrrolo[2,3-d]pyrimidin-7-yl]-2-fluoro-phenyl}-morpholin-4-yl-methanone], the IC50 in experiment [1] was more than 10 µM; in experiment [2] it was more than 10 µM; in experiment [3], more than 10 µM; in experiment [4], 0.031 µM; in experiment [4] (Table 3), 0.031 µM; in experiment [5], more than 10 µM.

Take `Cc1ccc(Nc2ncc3ccn(-c4cc(F)c(CN5CCOCC5)c(F)c4)c3n2)cc1CN1CCNCC1` [Example 332, [7-(3,5-Difluoro-4-morpholin-4-ylmethyl-phenyl)-7H-pyrrolo[2,3-d]pyrimidin-2-yl]-(4-methyl-3-piperazin-1-ylmethyl-phenyl)-amine]: the IC50 was 7.57 µM in experiment [1]; 9.05 µM in experiment [2]; 6.7 µM in experiment [3]; not above 0.003 µM in experiment [4]; 1.55 µM in experiment [5].

Regarding `Fc1cc(-n2ccc3cnc(Nc4ccnc(CN5CCNCC5)c4)nc32)cc(F)c1CN1CCOCC1` [Example 372, [7-(3,5-Difluoro-4-morpholin-4-ylmethyl-phenyl)-7H-pyrrolo[2,3-d]pyrimidin-2-yl]-(2-piperazin-1-ylmethyl-pyridin-4-yl)-amine], the IC50 in experiment [1] is more than 10 µM; in experiment [2] it was more than 10 µM; in experiment [3] it was more than 10 µM; in experiment [4], 0.0047 µM; in experiment [4] (Table 3), 0.0047 µM; in experiment [5], 5.7 µM.

As to `C[C@@H]1CN(c2ccc(Nc3ncc4ccn(-c5ccc(NS(C)(=O)=O)cc5)c4n3)cn2)C[C@H](C)N1` [Example 380, N-(4-{2-[6-(cis-3,5-Dimethyl-piperazin-1-yl)-pyridin-3-ylamino]-pyrrolo[2,3-d]pyrimidin-7-yl}-phenyl)-methanesulfonamide], the IC50 in experiment [1] was 5.4 µM; in experiment [2], more than 10 µM; in experiment [3], 5.3 µM; in experiment [4], 0.0032 µM; in experiment [4] (Table 3), 0.0032 µM; in experiment [5], 1.7 µM.

Turning to `Cc1ccc(Nc2ncc3ccn(-c4cc(F)c(CN5CCNC(=O)C5)c(F)c4)c3n2)cc1CN1CCNCC1` [Example 382, 4-{2,6-Difluoro-4-[2-(4-methyl-3-piperazin-1-ylmethyl-phenylamino)-pyrrolo[2,3-d]pyrimidin-7-yl]-benzyl}-piperazin-2-one], the IC50 in experiment [1] is 2.4 µM; in experiment [2], more than 10 µM; in experiment [3] it was 7.7 µM; in experiment [4], 0.0035 µM; in experiment [4] (Table 3) it was 0.0035 µM; in experiment [5], 1.1 µM.

`CN1CCN(c2ccc(Nc3ncc4ccn(-c5cc(F)c(CN6CCS(=O)(=O)CC6)c(F)c5)c4n3)nc2)CC1` [Example 440, {7-[4-(1,1-Dioxido-thiomorpholin-4-ylmethyl)-3,5-difluoro-phenyl]-7H-pyrrolo[2,3-d]pyrimidin-2-yl}-[5-(4-methyl-piperazin-1-yl)-pyridin-2-yl]-amine]: the IC50 in experiment [1] was more than 10 µM; in experiment [2], more than 10 µM; in experiment [3], more than 10 µM; in experiment [4] it was 0.0032 µM; in experiment [4] (Table 3), 0.0032 µM; in experiment [5], more than 10 µM.

As for `COCc1c(F)cc(-n2ccc3cnc(Nc4ccc(N5CCN(C)CC5)nc4)nc32)cc1F` [Example 446, [7-(3,5-Difluoro-4-methoxymethyl-phenyl)-7H-pyrrolo[2,3-d]pyrimidin-2-yl]-[6-(4-methyl-piperazin-1-yl)-pyridin-3-yl]-amine], the IC50 in experiment [1] is 6 µM; in experiment [2] it was more than 10 µM; in experiment [3] it was 7.45 µM; in experiment [4] it was 0.0043 µM; in experiment [4] (Table 3), 0.0043 µM; in experiment [5], 2.65 µM.

As to `CC1(C)NCCN(c2cc(Nc3ncc4ccn(-c5cc(F)c(CN6CCOCC6)c(F)c5)c4n3)ccn2)C1=O` [Example 503, 1-{4-[7-(3,5-Difluoro-4-morpholin-4-ylmethyl-phenyl)-7H-pyrrolo[2,3-d]pyrimidin-2-ylamino]-pyridin-2-yl}-3,3-dimethyl-piperazin-2-one], the IC50 is 6.1 µM in experiment [1]; more than 10 µM in experiment [2]; more than 10 µM in experiment [3]; not above 0.003 µM in experiment [4]; less than 0.003 µM in experiment [4] (Table 3); 9.5 µM in experiment [5].

Values taken from US8420657B2 (Novartis AG, priority 2008, dated 2013).
